The values below are quoted from earlier work in patent US20070104771A1, “Transdermal galantamine delivery system” (priority 2005, published 2007).

Structures are written as SMILES.

With `COc1ccc2c3c1OC1CC(O)C=CC31CCN(C)C2` (stereo not shown) [galantamine, 4a, 5,9, 10, 11, 12-Hexahydro-3-methoxy-11-methyl-6H-benzofuro (3a, 3,2-ef) (2) benzazepin-6-ol], the oral bioavailability was 90%.
